In US12612412B2, “Antiviral heterocyclic compounds” (Enanta Pharmaceuticals, Inc., priority 2021, dated 2026):
pEC50: −log10 of the molar value.

Test system: genotype A, "Long" strain RSV
Assay: RSV-A assay (CPE protection in Hep-2 cells, ATPlite readout)
Format: cell-based, Human respiratory syncytial virus (HRSV)
Settings: human respiratory syncytial virus, RSV-A Long strain, MOI 0.1, CPE protection, read-out: Human RSV-A (“Long”) EC50
In short: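 ATPlite luminescence (cellular ATP) served as the measure of cell health after 5 days of infection. Hep-2 cells at 8,000 per well received duplicate 2-fold compound dilutions plus virus at MOI 0.1, and EC50 was calculated from CPE protection.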

| SMILES | pEC50 |
| --- | --- |
| C[C@]1(C(N)=O)COc2c1cc([C@@](O)(CNC(=O)c1cc(OC(F)F)c3nn(C4CC4)cc3c1)C1CC1)nc2-c1cc(Cl)c(F)cc1F [Example 1212] | > 6.70 |
| COc1cc(C(=O)NC[C@](O)(c2cc3c(c(C4CCC(F)(F)CC4)n2)OC[C@]3(C)C(N)=O)C(F)(F)F)cc2cn(C3CC3)nc12 [Example 1268] | > 6.70 |
| COc1cc(C(=O)NC[C@](O)(c2cc3c(c(C4=CCN(C(=O)OC(C)(C)C)CC4)n2)OC[C@]3(C)C(N)=O)C(F)(F)F)cc2cn(C3CC3)nc12 [Example 1241] | < 6.70 |

Now from value to molecule:

| pEC50 | SMILES |
| --- | --- |
| > 6.70 | COc1cc(C(=O)NC[C@](O)(c2cc3c(c(-c4cc(Cl)c(Cl)cc4F)n2)OC[C@]3(C)C(N)=O)C(F)(F)F)cc2cn(C3CC3)nc12 [Example 1267] |
| > 6.70 | CNC(=O)[C@@]1(C)COc2c1cc([C@](O)(CNC(=O)c1cc(OC)c3nn(C4CC4)cc3c1)C(F)(F)F)nc2-c1ccc(F)c(F)c1Cl [Example 1201] |
| > 6.70 | COc1cc(C(=O)NC[C@](O)(c2cc3c(c(-c4ccc(F)cc4)n2)OC[C@]3(C)C(N)=O)C2CC2)cc2cc(Br)c(C)nc12 [Example 1117] |
| > 6.70 | CCNC(=O)[C@@]1(C)COc2c1cc([C@@](O)(CNC(=O)c1cc(OC)c3nn(C4CC4)cc3c1)C(F)(F)F)nc2-c1ccc(F)cc1 [Example 1171] |
| > 6.70 | COc1cc(C(=O)NC[C@](O)(c2cc3c(c(-c4cccc(Cl)c4Cl)n2)OC[C@]3(C)C(N)=O)C(F)(F)F)cc2cn(C3CC3)nc12 [Example 1253] |
| < 6.70 | COc1cc(C(=O)NCC(O)(c2cc3c(c(Br)n2)OC[C@]3(C)C(N)=O)C(F)(F)F)cc2cn(C3CC3)nc12 (stereo partly drawn) [Example 890] |
| < 6.70 | COc1cc(C(=O)NC[C@](O)(c2cc3c(c(-c4ccc(F)cc4)n2)OC[C@]3(C)C(N)=O)C(F)(F)F)cn2nc(C3CC3)cc12 [Example 879] |
| > 6.70 | COc1cc(C(=O)NCC(O)(c2cc3c(c(-c4cc(F)cc(Cl)c4)n2)OC[C@]3(C)C(N)=O)C(F)(F)F)cc2cn(C3CC3)nc12 (stereo partly drawn) [Example 1252] |

Same assay, conditions: human respiratory syncytial virus, genotype A “Long” strain RSV, MOI 0.1, CPE protection, read-out: Human RSV-A (“Long”)

| SMILES | pEC50 |
| --- | --- |
| NC(=O)[C@]1(CF)COc2c1cc([C@@](O)(CNC(=O)c1cc(F)c3nc(N)sc3c1)C(F)(F)F)nc2-c1ccc(F)cc1 [Example 289] | < 6.70 |
| Cc1ccn2ncc(C(=O)NC[C@](O)(c3cc4c(c(-c5ccc(F)cc5)n3)OC[C@]4(C)C(N)=O)C(F)(F)F)c2n1 [Example 358] | < 6.70 |
| C[C@]1(C(N)=O)COc2c1cc([C@@](O)(CNC(=O)c1ccn3nc(C4CC4)cc3c1)C1CC1)nc2-c1ccc(F)cc1 [Example 332] | > 6.70 |
| C[C@]1(C(N)=O)COc2c1cc([C@@](O)(CNC(=O)c1ccn3nc(N)cc3c1)C(F)(F)F)nc2-c1ccc(F)cc1 [Example 87] | > 6.70 |
| C[C@]1(C(N)=O)COc2c1cc([C@@](O)(CNC(=O)c1c[nH]c3ncc(C(F)(F)F)cc13)C(F)(F)F)nc2-c1ccc(F)cc1 [Example 347] | < 6.70 |
| C[C@]1(C(N)=O)COc2c1cc([C@@](O)(CNC(=O)c1ccnc3[nH]ccc13)C(F)(F)F)nc2-c1ccc(F)cc1 [Example 369] | > 6.70 |
| C[C@]1(C(N)=O)COc2c1cc([C@@](O)(CNC(=O)c1cccc3cc[nH]c13)C(F)(F)F)nc2-c1ccc(F)cc1 [Example 366] | > 6.70 |
| Cc1ccc2nc(C(=O)NC[C@](O)(c3cc4c(c(-c5ccc(F)cc5)n3)OC[C@]4(C)C(N)=O)C(F)(F)F)cn2c1 [Example 398] | < 6.70 |
| COc1cc(C(=O)NC[C@](O)(c2cc3c(c(-c4ccc(F)cc4)n2)OCC3(C(N)=O)C(F)F)C(F)(F)F)ccc1OC1CC1 (stereo partly drawn) [Example 261] | > 6.70 |
| CC(C)c1cc2[nH]ncc2cc1C(=O)NC[C@](O)(c1cc2c(c(-c3ccc(F)cc3)n1)OC[C@]2(C)C(N)=O)C(F)(F)F [Example 125] | < 6.70 |
| C[C@]1(C(N)=O)COc2c1cc([C@@](O)(CNC(=O)c1ccc3cc(C4CC4)cn3c1)C(F)(F)F)nc2-c1ccc(F)cc1 [Example 185] | < 6.70 |
| C[C@]1(C(N)=O)COc2c1cc([C@@](O)(CNC(=O)c1cc3cc[nH]c3cn1)C(F)(F)F)nc2-c1ccc(F)cc1 [Example 384] | < 6.70 |
| C[C@]1(C(N)=O)COc2c1cc([C@@](O)(CNC(=O)c1ccccn1)C(F)(F)F)nc2-c1ccc(F)cc1 [Example 421] | < 6.70 |
| COc1cc(C(=O)NC[C@](O)(c2cc3c(c(-c4ccc(F)cc4)n2)OC[C@]3(C)C(N)=O)C2CC2)cn2cc(C3CC3)nc12 [Example 320] | > 6.70 |
| C[C@]1(C(N)=O)COc2c1cc([C@@](O)(CNC(=O)c1nc(-c3ccccc3)c[nH]1)C(F)(F)F)nc2-c1ccc(F)cc1 [Example 212] | < 6.70 |
| NC(=O)[C@]1(C2CC2)COc2c1cc([C@@](O)(CNC(=O)c1cc(OC3CC3)c3ncccc3c1)C(F)(F)F)nc2-c1ccc(F)cc1 [Example 271] | < 6.70 |
| C[C@]1(C(N)=O)COc2c1cc([C@@](O)(CNC(=O)c1ccc3nc(C(N)=O)sc3c1)C(F)(F)F)nc2-c1ccc(F)cc1 [Example 130] | > 6.70 |
| Cn1ccc(C(=O)NC[C@](O)(c2cc3c(c(-c4ccc(F)cc4)n2)OC[C@]3(C)C(N)=O)C(F)(F)F)n1 [Example 411] | < 6.70 |
| C[C@]1(C(N)=O)COc2c1cc([C@@](O)(CNC(=O)c1c[nH]c3ccccc13)C(F)(F)F)nc2-c1ccc(F)cc1 [Example 352] | < 6.70 |
| C[C@]1(C(N)=O)COc2c1cc([C@@](O)(CNC(=O)c1ccc3nc(NC(=N)N)sc3c1)C(F)(F)F)nc2-c1ccc(F)cc1 [Example 159] | > 6.70 |
| Cn1cc(C(=O)NC[C@](O)(c2cc3c(c(-c4ccc(F)cc4)n2)OC[C@]3(C)C(N)=O)C(F)(F)F)nn1 [Example 337] | < 6.70 |
| Cn1cccc1C(=O)NC[C@](O)(c1cc2c(c(-c3ccc(F)cc3)n1)OC[C@]2(C)C(N)=O)C(F)(F)F [Example 425] | < 6.70 |
| COc1cc(C(=O)NC[C@](O)(c2cc3c(c(-c4ccc(F)cc4Cl)n2)OC[C@]3(C)C(N)=O)C2CC2)cc2cn(C3CC3)nc12 [Example 535] | > 6.70 |
| C[C@]1(C(N)=O)COc2c1cc([C@@](O)(CNC(=O)c1cc3cc[nH]c3cc1F)C(F)(F)F)nc2-c1ccc(F)cc1 [Example 400] | < 6.70 |
| COc1cc(C(=O)NC[C@](O)(c2cc3c(c(-c4ccc(F)cc4)n2)OC[C@@]3(CF)C(N)=O)C(F)(F)F)ccc1OC1CC1 [Example 298] | < 6.70 |
| C[C@]1(C(N)=O)COc2c1cc([C@@](O)(CNC(=O)c1nc3cccnc3s1)C(F)(F)F)nc2-c1ccc(F)cc1 [Example 335] | < 6.70 |
| Cc1sc(-c2ccccc2)nc1C(=O)NC[C@](O)(c1cc2c(c(-c3ccc(F)cc3)n1)OC[C@]2(C)C(N)=O)C(F)(F)F [Example 483] | < 6.70 |

Results, then the molecule that gave them:

| pEC50 | SMILES |
| --- | --- |
| > 6.70 | COc1cc(C(=O)NC[C@](O)(c2cc3c(c(-c4ccc(F)cc4)n2)OC[C@]3(C)C(N)=O)C2CC2)cc2cc(Cl)c(C)nc12 [Example 319] |
| > 6.70 | COc1cc(C(=O)NC[C@](O)(c2cc3c(c(-c4ccc(F)cc4)n2)OC[C@]3(C)C(N)=O)C(F)(F)F)cc2cc3c(nc12)CCC3 [Example 71] |
| < 6.70 | COc1cccc2[nH]nc(C(=O)NC[C@](O)(c3cc4c(c(-c5ccc(F)cc5)n3)OC[C@]4(C)C(N)=O)C(F)(F)F)c12 [Example 395] |
| > 6.70 | COc1cc(C(=O)NC[C@](O)(c2cc3c(c(-c4ccc(F)cc4)n2)OC[C@@]3(CF)C(N)=O)C(F)(F)F)cc2cc(Cl)c(C)nc12 [Example 284] |
| < 6.70 | Cc1nc2cc(C(=O)NC[C@](O)(c3cc4c(c(-c5ccc(F)cc5)n3)OC[C@]4(C)C(N)=O)C(F)(F)F)ccc2o1 [Example 375] |
| > 6.70 | C[C@]1(C(N)=O)COc2c1cc([C@@](O)(CNC(=O)c1cnc3[nH]ccc3c1)C(F)(F)F)nc2-c1ccc(F)cc1 [Example 380] |
| > 6.70 | COc1cc(C(=O)NC[C@](O)(c2cc3c(c(-c4ccc(F)cc4)n2)OC[C@]3(C)C(N)=O)C(F)(F)F)cn2cc(C(N)=O)nc12 [Example 61] |
| > 6.70 | C[C@]1(C(N)=O)COc2c1cc([C@@](O)(CNC(=O)c1cc(Br)c3[nH]c(C4CC4)nc3c1)C(F)(F)F)nc2-c1ccc(F)cc1 [Example 204] |
| < 6.70 | COc1cc(C(=O)NC[C@](O)(c2cc3c(c(-c4ccc(F)cc4)n2)OC[C@]3(C)C(N)=O)C(F)(F)F)cc2c1cnn2C1CC1 [Example 144] |
| > 6.70 | CC[C@]1(C(N)=O)COc2c1cc([C@@](O)(CNC(=O)c1cc(OC)c3ncc(C(F)(F)F)cc3c1)C(F)(F)F)nc2-c1ccc(F)cc1 [Example 239] |
| < 6.70 | COc1ncc(F)cc1C(=O)NC[C@](O)(c1cc2c(c(-c3ccc(F)cc3)n1)OC[C@]2(C)C(N)=O)C(F)(F)F [Example 412] |
| > 6.70 | Cc1cnc2c(Nc3ccc(F)nn3)cc(C(=O)NC[C@](O)(c3cc4c(c(-c5ccc(F)cc5)n3)OC[C@]4(C)C(N)=O)C(F)(F)F)cc2c1 [Example 119] |
| < 6.70 | Cc1cc(C(=O)NC[C@](O)(c2cc3c(c(-c4ccc(F)cc4)n2)OC[C@]3(C)C(N)=O)C(F)(F)F)n[nH]1 [Example 355] |
| < 6.70 | C[C@]1(C(N)=O)COc2c1cc([C@@](O)(CNC(=O)c1ccc3sc(N)nc3c1)C(F)(F)F)nc2-c1ccc(F)cc1 [Example 190] |
| > 6.70 | COc1cc(C(=O)NC[C@](O)(c2cc3c(c(-c4ccc(F)c(Cl)c4)n2)OC[C@]3(C)C(N)=O)C(F)(F)F)cc2cc(Cl)c(C)nc12 [Example 228] |
| > 6.70 | Cc1cnc2c(Nc3ccc(C(C)C)nn3)cc(C(=O)NC[C@](O)(c3cc4c(c(-c5ccc(F)cc5)n3)OC[C@]4(C)C(N)=O)C(F)(F)F)cc2c1 [Example 115] |
| < 6.70 | Cn1ccc(C(=O)NC[C@](O)(c2cc3c(c(-c4ccc(F)cc4)n2)OC[C@]3(C)C(N)=O)C(F)(F)F)c1 [Example 407] |
| > 6.70 | C[C@]1(C(N)=O)COc2c1cc([C@@](O)(CNC(=O)c1ccc3nc(C4CC4)sc3c1)C(F)(F)F)nc2-c1ccc(F)c(Cl)c1 [Example 18] |
| < 6.70 | C[C@]1(C(N)=O)COc2c1cc([C@@](O)(CNC(=O)c1cnc3[nH]cnc3c1)C(F)(F)F)nc2-c1ccc(F)cc1 [Example 365] |
